Measurements reported in patent US20180206495A1, “SUBSTITUTED ARYL AND HETEROARYL CARBOXYLIC ACID HYDRAZIDES OR SALTS THEREOF AND USE THEREOF TO INCREASE STRESS TOLERANCE IN PLANTS” (BAYER CROPSCIENCE AKTIENGESELLSCHAFT, priority 2015, published 2018).

tested on: Zea mays; assay: In vivo analyses Part A: drought stress, spray application, visual damage scoring, Zea mays; settings: dosage 25 g/ha
Protocol: (§1) Seeds of monocotyledonous and dicotyledonous crop plants were sown in sandy loam in wood-fiber or plastic pots, covered with soil or sand and cultivated in a greenhouse under good growth conditions. The trial plants were treated at the early leaf stage (BBCH10-BBCH13). To assure uniform water supply before commencement of stress, the potted plants were supplied with water by dam irrigation prior to substance application. The inventive compounds formulated in the form of wettable powders (WP) were sprayed onto the green parts of the plants as an aqueous suspension at an equivalent water application rate of 600 l/ha with addition of 0.2% wetting agent (e.g. agrotin). Substance application was followed immediately by stress treatment of the plants. For this purpose, the wood-fiber pots were transferred in plastic inserts in order to prevent them from subsequently drying out too quickly. Drought stress was induced by gradual drying out under the following conditions: “Day”: 14 hours with illumination at ˜26-30° C. “Night”: 10 hours without illumination at ˜18-20° C. The duration of the respective stress phases was guided mainly by the condition of the stressed control plants. It was ended (by re-irrigating and transfer to a greenhouse with good growth conditions) as soon as irreversible damage was observed on the stressed control plants. The end of the stress phase was followed by an about 4-7-day recovery phase, during which the plants were once again kept under good growth conditions in a greenhouse. The duration of the recovery phase was guided mainly by when the trial plants had attained a state which enabled visual scoring of potential effects, and is therefore variable. Once this juncture was reached, the intensities of damage were scored visually in comparison to untreated, unstressed controls of the same age. The damage intensity was at first assessed in per cent. These values were then used to calculate the efficacy of the test compounds by the following formula: [formula] EF: Efficacy DIs: Damage intensity of the stressed control plants DIt: Damage intensity of the stressed plants treated with test compound The values reported in tables A-1 to A-3 below are mean values from at least one trial with at least two repeats, showing the effects of selected compounds of the general formula (I) under drought stress on various crop plants.

Row | Structure (SMILES) | EF [%] (ZEAMX)
1 | CN(C)N(Cc1ccccc1Cl)C(=O)c1cnccc1C(F)(F)F [B1-1] | >5
2 | CN(C)N(Cc1ccc2ccccc2n1)C(=O)c1cccc(C#N)c1 [A34-122] | >5
3 | CN(C)N(Cc1ccc(Cl)cc1)C(=O)c1ccncc1 [C1-3] | >5
4 | CN(C)N(Cc1ccccn1)C(=O)c1cccnc1C(F)(F)C(F)(F)F [B3-21] | >5
5 | Cc1c(OCC(F)(F)F)ccnc1CN(C(=O)c1ccc(Cl)cc1)N(C)C [A9-144] | >5
6 | CN(C)N(Cc1ccc2ccccc2n1)C(=O)c1cccc([N+](=O)[O-])c1 [A33-122] | >5
7 | CN(C)N(Cc1cccc([N+](=O)[O-])c1)C(=O)c1ccncc1 [C1-111] | >5

same assay, conditions: dosage 250 g/ha

Row | Structure (SMILES) | EF [%] (ZEAMX)
8 | CN(C)N(CCc1cccc(Cl)c1)C(=O)c1ccccc1C(F)(F)F [A1-613] | >5
9 | CN(C)N(Cc1c(Cl)cccc1Cl)C(=O)c1ccccc1C(F)(F)F [A1-7] | >5
10 | Cc1ccc(CCN(C(=O)c2ccc(Cl)cc2)N(C)C)cc1C [A9-663] | >5
11 | CN(C)N(Cc1ccccc1Cl)C(=O)c1ccccc1[N+](=O)[O-] [A32-1] | >5
12 | CN(C)N(CCc1ccc(Cl)cc1Cl)C(=O)c1ccc(Cl)cc1 [A9-615] | >5
13 | Cc1ccc(C(F)(F)F)c(C(=O)N(Cc2ccccn2)N(C)C)c1 [A13-21] | >5
14 | CN(C)N(Cc1ccc(Br)cc1F)C(=O)c1ccccc1C(F)(F)F [A1-44] | >5
15 | CN(C)N(Cc1ncc(C(F)(F)F)cc1Cl)C(=O)c1ccc(F)cc1C(F)(F)F [A14-36] | >5
16 | CN(C)N(CCc1ccccc1Cl)C(=O)c1ccccc1C(F)(F)F [A1-612] | >5
17 | CN(C)N(Cc1ccc(Br)cc1F)C(=O)c1ccc(Cl)cc1Cl [A12-44] | >5
18 | COc1c(C)cnc(CN(C(=O)c2ccccc2Cl)N(C)C)c1C [A10-37] | >5
19 | CN(C)N(Cc1ccc2ccccc2n1)C(=O)c1cnccc1C(F)(F)F [B1-122] | >5
20 | COc1cc(Cl)c(CN(C(=O)c2ccccc2C(F)(F)F)N(C)C)cc1OC [A1-147] | >5
21 | CN(C)N(Cc1cc(C(F)(F)F)ccc1Cl)C(=O)c1ccccn1 [D1-86] | >5
22 | CN(C)N(CCc1ccc(C(C)(C)C)cc1)C(=O)c1ccc(Cl)cc1 [A9-639] | >5
23 | CN(C)N(Cc1nccc(Cl)c1Cl)C(=O)c1ccccc1C(F)(F)F [A1-40, N-[(3,4-Dichloropyridin-2-yl)methyl]-N′,N′-dimethyl-2-(trifluoromethyl)benzohydrazide] | >5
24 | COc1ccccc1C(=O)N(Cc1ccccn1)N(C)C [A8-21] | >5
25 | CN(C)N(Cc1ncc(Cl)cc1Cl)C(=O)c1cccc(Cl)c1 [A28-35] | >5

tested on: Triticum aestivum; assay: In vivo analyses Part B: drought stress, spray application, appearance vs stressed control in categories, Triticum aestivum; parameters: key: 0: no positive effect; +: slight positive effect; ++: clear positive effect; +++: strong positive effect; settings: dosage 25 g/ha
Protocol: (§2) Seeds of monocotyledonous and dicotyledonous crop plants were sown in sandy loam in plastic pots, covered with soil or sand and cultivated in a greenhouse under good growth conditions. The test plants are treated at the early leaf stage (BBCH10-BBCH13). To assure uniform water supply before commencement of stress, the potted plants were supplied with water by dam irrigation prior to substance application. The inventive compounds were first formulated as wettable powders (WP) or dissolved in a solvent mixture. The further dilution was effected with water supplemented with 0.2% wetting agent (e.g. agrotin). The finished spray liquor was sprayed onto the green parts of the plant at an equivalent water application rate of 600 l/ha. Substance application was followed immediately by stress treatment of the plants. Drought stress was induced by gradual drying out under the following conditions: “Day”: 14 hours with illumination at ˜26-30° C. “Night”: 10 hours without illumination at ˜18-20° C. The duration of the respective stress phases was guided mainly by the condition of the stressed control plants. It was ended (by re-irrigating and transfer to a greenhouse with good growth conditions) as soon as irreversible damage was observed on the stressed control plants. The end of the stress phase was followed by an about 4-7-day recovery phase, during which the plants were once again kept under good growth conditions in a greenhouse. The duration of the recovery phase was guided mainly by when the trial plants had attained a state which enabled visual scoring of potential effects, and was therefore variable. Once this juncture had been reached, the appearance of the plants treated with test substances was recorded in comparison to the stressed control plants by the following categories: • 0 no positive effect • + slight positive effect • ++ clear positive effect • +++ strong positive effect In order to rule out any influence on the effects observed by any fungicidal or insecticidal action of the test compounds, it was additionally ensured that the tests proceeded without fungal infection or insect infestation. The values reported in tables B-1 and B-2 below are mean values of the results from at least three repeats. Effects of selected compounds of the general formula (I) under drought stress according to the following tables B-1 and B-2: […]

Row | Structure (SMILES) | Effect (TRZAS)
26 | CN(C)N(CCc1ccccc1Cl)C(=O)c1ccccc1C(F)(F)F [A1-612] | +

same assay, conditions: dosage 250 g/ha

Row | Structure (SMILES) | Effect (TRZAS)
27 | CN(C)N(Cc1nccc(Cl)c1Cl)C(=O)c1ccccc1C(F)(F)F [A1-40, N-[(3,4-Dichloropyridin-2-yl)methyl]-N′,N′-dimethyl-2-(trifluoromethyl)benzohydrazide] | ++

tested on: Brassica napus; assay: In vivo analyses Part A: drought stress, spray application, visual damage scoring, Brassica napus; settings: dosage 2.5 g/ha
Protocol: as §1

Row | Structure (SMILES) | EF [%] (BRSNS)
28 | CN(C)N(Cc1nccc(Cl)c1Cl)C(=O)c1ccccc1C(F)(F)F [A1-40, N-[(3,4-Dichloropyridin-2-yl)methyl]-N′,N′-dimethyl-2-(trifluoromethyl)benzohydrazide] | >5
29 | CN(C)N(Cc1cccc([N+](=O)[O-])c1)C(=O)c1ccncc1 [C1-111] | >5

same assay, conditions: dosage 25 g/ha

Row | Structure (SMILES) | EF [%] (BRSNS)
30 | Cc1ccc(C(F)(F)F)c(C(=O)N(Cc2ccccn2)N(C)C)c1 [A13-21] | >5
31 | CN(C)N(Cc1ccc(Br)cc1F)C(=O)c1ccc(Cl)cc1Cl [A12-44] | >5
32 | CN(C)N(Cc1ccc2ccccc2n1)C(=O)c1cnccc1C(F)(F)F [B1-122] | >5
33 | COc1cc(Cl)c(CN(C(=O)c2ccccc2C(F)(F)F)N(C)C)cc1OC [A1-147] | >5
34 | CN(C)N(Cc1cc(C(F)(F)F)ccc1Cl)C(=O)c1ccccn1 [D1-86] | >5
35 | COc1ccccc1C(=O)N(Cc1ccccn1)N(C)C [A8-21] | >5

same assay, conditions: dosage 250 g/ha

Row | Structure (SMILES) | EF [%] (BRSNS)
36 | CN(C)N(Cc1ccc(Cl)cc1)C(=O)c1ccncc1 [C1-3] | >5
37 | CN(C)N(Cc1ccccn1)C(=O)c1cccnc1C(F)(F)C(F)(F)F [B3-21] | >5
38 | CN(C)N(Cc1ccc2ccccc2n1)C(=O)c1cccc([N+](=O)[O-])c1 [A33-122] | >5
39 | CN(C)N(Cc1ncc(Cl)cc1Cl)C(=O)c1cccc(Cl)c1 [A28-35] | >5

tested on: Brassica napus; assay: In vivo analyses Part B: drought stress, spray application, appearance vs stressed control in categories, Brassica napus; parameters: key: 0: no positive effect; +: slight positive effect; ++: clear positive effect; +++: strong positive effect; settings: dosage 25 g/ha
Protocol: as §2

Row | Structure (SMILES) | Effect (BRSNS)
40 | CN(C)N(CCc1ccccc1Cl)C(=O)c1ccccc1C(F)(F)F [A1-612] | +

tested on: Triticum aestivum; assay: In vivo analyses Part A: drought stress, spray application, visual damage scoring, Triticum aestivum; settings: dosage 25 g/ha
Protocol: as §1

Row | Structure (SMILES) | EF [%] (TRZAS)
41 | CN(C)N(Cc1cccc([N+](=O)[O-])c1)C(=O)c1ccncc1 [C1-111] | >5

same assay, conditions: dosage 250 g/ha

Row | Structure (SMILES) | EF [%] (TRZAS)
42 | Cc1ccc(C(F)(F)F)c(C(=O)N(Cc2ccccn2)N(C)C)c1 [A13-21] | >5
43 | CN(C)N(Cc1ccc(Br)cc1F)C(=O)c1ccc(Cl)cc1Cl [A12-44] | >5
44 | CN(C)N(Cc1nccc(Cl)c1Cl)C(=O)c1ccccc1C(F)(F)F [A1-40, N-[(3,4-Dichloropyridin-2-yl)methyl]-N′,N′-dimethyl-2-(trifluoromethyl)benzohydrazide] | >5
45 | COc1ccccc1C(=O)N(Cc1ccccn1)N(C)C [A8-21] | >5
